# Reference: patent US20050148523A1, “Method of treating HIV infection in atazanavir-resistant patients using a combination of atazanavir and another protease inhibitor” (priority 2003, published 2005)
# Read-outs that look alike come from different tables or passages of the source.
# Assays:
# NL4-3 reference strain = test: PhenoSense phenotypic drug susceptibility assay, reference strain; format: cell-based, HIV-1; conditions: Human immunodeficiency virus 1, NL43; over the several months of sample testing; read-out: IC50 measured for the NL4-3 reference strain
# Method: Drug Susceptibility Assays. Clinical isolates were subjected to phenotypic (PhenoSense™) and genotypic (GeneSeq™) analysis by Virologic, Inc. as described elsewhere. Over the time period (several months) in which the samples reported here were tested, the ATV IC50 measured for the NL4-3 reference strain ranged from 0.9-2.0 nM. The success rate in obtaining phenotype and genotype results from patients experiencing virologic failure ranged from 30 to 50%, largely because of low HIV RNA levels (the assays used required levels of >=500 c/mL), insufficient sample volume, or no sample was available.
# [1] = test system: clinical isolates containing an I50L substitution (and their baseline isolates); test: PhenoSense phenotypic susceptibility of clinical isolates from ATV-treated patients who developed I50L; format: cell-based, HIV-1
# From the text: (§1) Study Population. Viral samples (baseline and on-treatment, where available) were obtained from patients who experienced virologic failure while enrolled in studies AI424-007/041 [12] (ATV+d4T and ddI), AI424-008/044 [13, 14] (ATV+d4T and 3TC) and AI424-034 [9] (ATV or EFV in combination with ZDV and 3TC). […] In general, virologic failure specimens were selected for further resistance evaluation only if they contained >1,000 copies/mL HIV-1 RNA and there was no indication that the specimen came from a patient at a time of transient non-adherence to study drug(s). […] For non-responders, samples from week 16 (or 24) were tested. Drug adherence was determined from pill counts of returned study medications at each scheduled visit.
# (§2) Drug Susceptibility Assays. Clinical isolates were subjected to phenotypic (PhenoSense™) and genotypic (GeneSeq™) analysis by Virologic, Inc. as described elsewhere.
# [2] = test system: clinical isolates containing an I50V; test: PhenoSense phenotypic susceptibility of clinical isolates containing I50V; format: cell-based, HIV-1
# From the text: as §2
# Because an I50V substitution is a signature mutation sometimes associated with APV resistance, the cross-resistance relationship between ATV and APV was further examined.
# [3] = test system: clinical isolates containing a D30N substitution; test: PhenoSense phenotypic susceptibility of clinical isolates containing D30N; format: cell-based, HIV-1; conditions: 75 D30N containing isolates, FIG. 3
# Method: as §2
# Comparative Studies of I50L and D30N Containing Viruses. […] Comparative studies were performed on the 18 phenotyped viruses containing an I50L and 75 clinical isolates containing a D30N substitution without evidence of cross-resistance (FC≧2.5) to other PIs.
# [4] = test system: HIV-1 in treatment naive patients; test: Clinical study AI424-007/041, virological outcomes and resistance; format: in vivo, human; conditions: study 007/041
# From the text: as §1
# (§3) ATV resistance was defined as ≧2-fold decrease in ATV susceptibility from baseline, a Fold Change (FC) of ≧2.5 (relative to the Nl4-3 reference strain), or evidence of an isoleucine (Ile) to leucine (Leu) change at amino acid residue 50 (I50L). Resistance levels for NFV and EFV were also defined as a FC reaching 2.5.
# [5] = test system: HIV-1 in treatment naive patients; test: Clinical study AI424-008/044, virological outcomes and resistance; format: in vivo, human; conditions: study 008/044
# From the text: as §1, §3
# [6] = test system: HIV-1 in treatment naive patients; test: Clinical study AI424-034, virological outcomes and resistance; format: in vivo, human; conditions: study 034
# From the text: as §1, §3
# HIV-1 protease = HIV-1 protease (Human immunodeficiency virus type 1 group M subtype B, UniProt P04585); conditions: cited from earlier work
# [7] = test system: clinical isolates exhibiting a wide array of PI resistance profiles; conditions: cited from earlier work
smiles,measurement,setting,value
"COC(=O)N[C@H](C(=O)N[C@@H](Cc1ccccc1)[C@@H](O)CN(Cc1ccc(-c2ccccn2)cc1)NC(=O)[C@@H](NC(=O)OC)C(C)(C)C)C(C)(C)C [ATV, atazanavir]",IC50,NL4-3 reference strain,0.9 to 2 nM
same,median FC,"[1]; I50L isolates, relative to NL4-3 reference strain",9.6 fold
same,"Susceptibility, Fold Change in EC50 relative to reference strain",[1]; Isolate with I50L 1,3.5 Fold Change
same,"Susceptibility, Fold Change in EC50 relative to reference strain",[1]; Isolate with I50L 2,4.9 Fold Change
same,"Susceptibility, Fold Change in EC50 relative to reference strain",[1]; Isolate with I50L 3,5.2 Fold Change
same,"Susceptibility, Fold Change in EC50 relative to reference strain",[1]; Isolate with I50L 4,5.8 Fold Change
same,"Susceptibility, Fold Change in EC50 relative to reference strain",[1]; Isolate with I50L 5,6.7 Fold Change
same,"Susceptibility, Fold Change in EC50 relative to reference strain",[1]; Isolate with I50L 6,7.9 Fold Change
same,"Susceptibility, Fold Change in EC50 relative to reference strain",[1]; Isolate with I50L 7,8.6 Fold Change
same,"Susceptibility, Fold Change in EC50 relative to reference strain",[1]; Isolate with I50L 8,8.8 Fold Change
same,"Susceptibility, Fold Change in EC50 relative to reference strain",[1]; Isolate with I50L 9,9.5 Fold Change
same,"Susceptibility, Fold Change in EC50 relative to reference strain",[1]; Isolate with I50L 10,10 Fold Change
same,"Susceptibility, Fold Change in EC50 relative to reference strain",[1]; Isolate with I50L 11,11 Fold Change
same,"Susceptibility, Fold Change in EC50 relative to reference strain",[1]; Isolate with I50L 12,12 Fold Change
same,"Susceptibility, Fold Change in EC50 relative to reference strain",[1]; Isolate with I50L 13,13 Fold Change
same,"Susceptibility, Fold Change in EC50 relative to reference strain",[1]; Isolate with I50L 14,19 Fold Change
same,"Susceptibility, Fold Change in EC50 relative to reference strain",[1]; Isolate with I50L 15,22 Fold Change
same,"Susceptibility, Fold Change in EC50 relative to reference strain",[1]; Isolate with I50L 16,29 Fold Change
same,"Susceptibility, Fold Change in EC50 relative to reference strain","[1]; Subject 076, Week 80",9.5 Fold Change
same,"Susceptibility, Fold Change in EC50 relative to reference strain","[1]; Subject 076, Week 92",16 Fold Change
same,"Susceptibility, Fold Change in EC50 relative to reference strain","[1]; Subject 100, Week 1.7",1.5 Fold Change
same,"Susceptibility, Fold Change in EC50 relative to reference strain","[1]; Subject 169, Week 0.1",1.1 Fold Change
same,"Susceptibility, Fold Change in EC50 relative to reference strain","[1]; Subject 169, Week 90",12 Fold Change
same,"Susceptibility, Fold Change in EC50 relative to reference strain","[1]; Subject 169, Week 102",9.2 Fold Change
same,"Subceptibility, Fold Change in EC50 relative to reference strain","[1]; Subject 169, Week 114",13 Fold Change
same,"Susceptibility, Fold Change in EC50 relative to reference strain","[1]; Subject 362, Week 0.1",1.3 Fold Change
same,"Susceptibility, Fold Change in EC50 relative to reference strain","[1]; Subject 362, Week 108",12 Fold Change
same,median decrease in susceptibility from baseline,"[1]; on emergence of I50L, n=15",9.6 fold
same,FC,[1]; same isolate prior to developing the I50L change,0.2
same,FC,"[1]; the one I50L isolate with lowest FC, on treatment",1.5
same,FC,[1]; three on treatment isolates containing I50I/L mixtures,below 1
same,median FC,"[1]; viruses containing the I50L substitution, FIG. 3",selective resistance
same,number of the eight isolates with FC less than 1.0,[2]; 8 I50V isolates resistant to APV,Seven
same,"Susceptibility, Fold Change in EC50 relative to reference strain",[2]; Isolate with I50V 1,0.3 Fold Change
same,"Susceptibility, Fold Change in EC50 relative to reference strain",[2]; Isolate with I50V 2,0.4 Fold Change
same,"Susceptibility, Fold Change in EC50 relative to reference strain",[2]; Isolate with I50V 3,0.6 Fold Change
same,"Susceptibility, Fold Change in EC50 relative to reference strain",[2]; Isolate with I50V 4,1.2 Fold Change
same,"Susceptibility, Fold Change in EC50 relative to reference strain",[2]; Isolate with I50V 5,0.4 Fold Change
same,"Susceptibility, Fold Change in EC50 relative to reference strain",[2]; Isolate with I50V 6,0.8 Fold Change
same,"Susceptibility, Fold Change in EC50 relative to reference strain",[2]; Isolate with I50V 7,0.5 Fold Change
same,"Susceptibility, Fold Change in EC50 relative to reference strain",[2]; Isolate with I50V 8,0.5 Fold Change
same,number of the eight isolates with FC of 0.4 or less,[2]; {},3
same,median FC,[3],small median decreases in susceptibility
same,Virologic Failures (%),[4],21%
same,"Virologic Failures, number",[4],51
same,Virologic Failures (%),[5],24%
same,"Virologic Failures, number",[5],88
same,Virologic Failures (%),[6],17%
same,"Virologic Failures, number",[6],69
same,Ki,HIV-1 protease,< 1 nM
same,percentage of isolates remaining susceptible to ATV,[7]; isolates resistant to 1 PI,88%
same,percentage of isolates remaining susceptible to ATV,[7]; isolates resistant to 2 PIs,81%
same,percentage of isolates remaining susceptible to ATV,[7]; isolates resistant to 3 PIs,34%
same,percentage of isolates remaining susceptible to ATV,[7]; isolates resistant to 4 PIs,16%
same,percentage of isolates remaining susceptible to ATV,[7]; isolates resistant to 5 PIs,5%
